The values below come from patent US20250059180A1 (DONG WHA PHARM. CO., LTD., priority 2022, published 2025).

The subject of the experiment is Pfeiffer cells, lymphoma cells having EZH2 mutation (A677G). In words: Proliferation inhibition of cells of hematologic malignancies (CCK-8, 11 days). Type of experiment: cell-based. The settings on record: 11 days culture, read-out: Cell proliferation inhibitory effect (IC50). The procedure: The growth inhibitory activity of 1,3-benzodioxole derivative compounds represented by chemical formula I of the present invention against Pfeiffer cells, which are lymphoma cells having EZH2 mutation (A677G), was evaluated.
Pfeiffer was cultured using RPMI1640 containing 10% fetal bovine serum. The cells were inoculated into wells of a 96-well culture dish at 10,000 cells each, and cultured for 11 days after treating with the test material for each concentration. For 11 days, the test material was replaced every three to four days. After culturing, the cells were treated with a cell counting kit-8 (CCK-8) reagent for each well, absorbance was measured at 450 nm, and IC50 values for cell proliferation were obtained through curve fitting of non-linear regression in the GraphPad program (GraphPad Prism 5.0 software).
On to `CSc1cc(C)[nH]c(=O)c1CNC(=O)c1cc(-c2ccc(N3C[C@@H](C)O[C@@H](C)C3)nc2)c2c(c1C)OC(C)(C1CCN(CC(F)(F)F)CC1)O2` (single isomer, unassigned) [Compound 44], for which the IC50 is at most 10 nM.

For the compound `CSc1cc(C)[nH]c(=O)c1CNC(=O)c1cc(-c2ccc(N3C[C@@H](C)O[C@@H](C)C3)nc2)c2c(c1C)OC(C)(C1CCN(CC(F)(F)F)CC1)O2` (single isomer, unassigned) [Compound 45], the IC50 is at least 100 nM.

Consider `CSc1cc(C)[nH]c(=O)c1CNC(=O)c1cc(-c2ccc(N3C[C@@H](C)O[C@@H](C)C3)nc2)c2c(c1C)OC(C)(C1CCN(CC(F)F)CC1)O2` (single isomer, unassigned) [Compound 47], for which the IC50 is at most 10 nM.

`CSc1cc(C)[nH]c(=O)c1CNC(=O)c1cc(-c2ccc(N3C[C@@H](C)O[C@@H](C)C3)nc2)c2c(c1C)OC(C)(C1CCN(CC(F)F)CC1)O2` (single isomer, unassigned) [Compound 48]: the IC50 was at least 100 nM.

As to `CCN1CCC(C2(C)Oc3c(-c4ccc(N5C[C@@H](C)O[C@@H](C)C5)nc4)cc(C(=O)NCc4c(SC)cc(C)[nH]c4=O)c(C)c3O2)CC1` (single isomer, unassigned) [Compound 49], the IC50 is at most 10 nM.

For `CCN1CCC(C2(C)Oc3c(-c4ccc(N5C[C@@H](C)O[C@@H](C)C5)nc4)cc(C(=O)NCc4c(SC)cc(C)[nH]c4=O)c(C)c3O2)CC1` (single isomer, unassigned) [Compound 50], the IC50 was at least 100 nM.

`CSc1cc(C)[nH]c(=O)c1CNC(=O)c1cc(-c2ccc(N3C[C@@H](C)O[C@@H](C)C3)nc2)c2c(c1C)OC(C)(C1CCN(C(C)C)CC1)O2` (single isomer, unassigned) [Compound 51]: the IC50 was at most 10 nM.

On to `CSc1cc(C)[nH]c(=O)c1CNC(=O)c1cc(-c2ccc(N3C[C@@H](C)O[C@@H](C)C3)nc2)c2c(c1C)OC(C)(C1CCN(C(C)C)CC1)O2` (single isomer, unassigned) [Compound 52], for which the IC50 is at least 100 nM.

As to `CSc1cc(C)[nH]c(=O)c1CNC(=O)c1cc(-c2ccc(N3C[C@@H](C)O[C@@H](C)C3)nc2)c2c(c1C)OC(C)(C1CCN(C3CCCCC3)CC1)O2` (single isomer, unassigned) [Compound 53], the IC50 was at most 10 nM.

In the case of `CSc1cc(C)[nH]c(=O)c1CNC(=O)c1cc(-c2ccc(N3C[C@@H](C)O[C@@H](C)C3)nc2)c2c(c1C)OC(C)(C1CCN(C3CCCCC3)CC1)O2` (single isomer, unassigned) [Compound 54], the IC50 was at least 100 nM.

In the case of `CSc1cc(C)[nH]c(=O)c1CNC(=O)c1cc(-c2ccc(N3C[C@@H](C)O[C@@H](C)C3)nc2)c2c(c1C)OC(C)(C1CCN(CCc3ccccc3)CC1)O2` (single isomer, unassigned) [Compound 55], the IC50 was at most 10 nM.

Regarding `CSc1cc(C)[nH]c(=O)c1CNC(=O)c1cc(-c2ccc(N3C[C@@H](C)O[C@@H](C)C3)nc2)c2c(c1C)OC(C)(C1CCN(CCc3ccccc3)CC1)O2` (single isomer, unassigned) [Compound 56], the IC50 was at least 100 nM.

Take `CSc1cc(C)[nH]c(=O)c1CNC(=O)c1cc(-c2ccc(N3C[C@@H](C)O[C@@H](C)C3)nc2)c2c(c1C)OC(C)(C1CCN(CCCC(F)(F)F)CC1)O2` (single isomer, unassigned) [Compound 57]: the IC50 was at most 10 nM.

For the compound `CSc1cc(C)[nH]c(=O)c1CNC(=O)c1cc(-c2ccc(N3C[C@@H](C)O[C@@H](C)C3)nc2)c2c(c1C)OC(C)(C1CCN(CCCC(F)(F)F)CC1)O2` (single isomer, unassigned) [Compound 58], the IC50 is at least 100 nM.

As for `CSc1cc(C)[nH]c(=O)c1CNC(=O)c1cc(-c2ccc(N3C[C@@H](C)O[C@@H](C)C3)nc2)c2c(c1C)OC(C)(C1CCN(C(=O)C(F)(F)F)CC1)O2` (single isomer, unassigned) [Compound 59], the IC50 was at most 10 nM.

Consider `CSc1cc(C)[nH]c(=O)c1CNC(=O)c1cc(-c2ccc(N3C[C@@H](C)O[C@@H](C)C3)nc2)c2c(c1C)OC(C)(C1CCN(C(=O)C(F)(F)F)CC1)O2` (single isomer, unassigned) [Compound 60], for which the IC50 was at least 100 nM.
